Source: patent US20250215029A1 (Recludix Pharma, Inc., priority 2022, published 2025)
pIC50: −log10 of the molar value. Read-outs that look alike come from different tables or passages of the source.

What was measured:
[1] = biological target: T1, Recombinant STAT3 protein (STAT3 (G127-I722)) (Homo sapiens, UniProt P40763); test: STAT3 Fluorescence Polarization (FP) Assay; assay type: binding; conditions: probe 5-FAM-GpYLPQTV-NH2 2 nM, 45-minute incubation
T1 construct: Recombinant STAT3 protein (STAT3 (G127-I722))
Procedure: STAT3 Fluorescence Polarization (FP) Assay
An FP assay was developed to determine IC50 values for test substances. Recombinant STAT3 protein (STAT3 (G127-I722)) at 25 nM was combined with a fluorescently labeled, phosphotyrosine peptide probe (5-FAM-GpYLPQTV-NH2) at 2 nM in FP buffer (10 mM HEPES pH 7.4, 50 mM NaCl, 1 mM EDTA, 0.05% Tween 20.2 mM DTT). 50 μL of STAT3-probe mixture was added to serial diluted compounds in black, 96-well plates (Greiner BioOne 655076) to a final concentration of 1% DMSO. Reaction components were mixed, and FP was measured after 45-minute incubation at room temperature using a Tecan Spark multimode plate reader. FP signal (mP) was plotted against the log concentration of the test substances and IC50 values were calculated by nonlinear regression analysis using GraphPad Prism software. For STAT3 FP assay, A=≤100 nM; B=>100-1000 nM; C=>1-10 μM; and D=>10 μM.

[2] = biological target: T2, Recombinant STAT6 protein (STAT6 (W123-T658)) (Homo sapiens, UniProt P42226); test: STAT6 Fluorescence Polarization (FP) Assay; assay type: binding; conditions: 45-minute incubation
T2 construct: Recombinant STAT6 protein (STAT6 (W123-T658))
T2 sequence (P42226 123-658): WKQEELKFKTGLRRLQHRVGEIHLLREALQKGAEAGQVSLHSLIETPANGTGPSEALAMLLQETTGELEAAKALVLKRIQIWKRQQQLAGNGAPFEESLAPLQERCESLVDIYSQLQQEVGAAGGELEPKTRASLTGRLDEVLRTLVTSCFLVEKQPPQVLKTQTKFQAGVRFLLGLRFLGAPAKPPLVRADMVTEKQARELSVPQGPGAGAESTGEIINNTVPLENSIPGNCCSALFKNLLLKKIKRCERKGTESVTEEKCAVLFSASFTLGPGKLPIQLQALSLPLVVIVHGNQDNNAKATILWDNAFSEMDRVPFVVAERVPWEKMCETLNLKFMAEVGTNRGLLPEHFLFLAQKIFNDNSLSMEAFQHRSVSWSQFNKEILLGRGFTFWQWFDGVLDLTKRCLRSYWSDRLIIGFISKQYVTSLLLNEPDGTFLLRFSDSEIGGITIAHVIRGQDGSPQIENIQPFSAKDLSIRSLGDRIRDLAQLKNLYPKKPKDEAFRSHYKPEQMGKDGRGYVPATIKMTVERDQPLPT
Procedure: STAT6 Fluorescence Polarization (FP) Assay
An FP assay was developed to determine IC50 values for test substances. Recombinant STAT6 protein (STAT6 (W123-T658)) at 250 nM was combined with a fluorescently labeled, phosphotyrosine peptide probe (5-FAM-Ap[…]-NH2) at 2 nM in FP buffer (10 mM HEPES pH 7.4, 50 mM NaCl, 1 mM EDTA, 0.05% Tween 20, 2 mM DTT). 50 μL of STAT6-probe mixture was added to serial diluted compounds in black, 96-well plates (Greiner BioOne 655076) to a final concentration of 1% DMSO. Reaction components were mixed, and FP was measured after 45-minute incubation at room temperature using a Tecan Spark multimode plate reader. FP signal (mP) was plotted against the log concentration of the test substances and IC50 values were calculated by nonlinear regression analysis using GraphPad Prism software. For STAT6 FP assay, A=≤300 nM; B=>300-3000 nM; C=>3-30 μM; and D=>30 μM.

[3] = STAT3 (G127-I722) 25 nM, read-out: STAT3 (FP assay IC50 class)
[4] = STAT6 (W123-T658) 250 nM, probe 5-FAM-Ap[…]-NH2 2 nM, read-out: STAT6 (FP assay IC50 class)
[5] = STAT3 25 nM, read-out: STAT3 (FP assay IC50)
[6] = STAT6 250 nM, probe 5-FAM-Ap[…]-NH2 2 nM, read-out: STAT6 (FP assay IC50)

T1 sequence (P40763 127-722): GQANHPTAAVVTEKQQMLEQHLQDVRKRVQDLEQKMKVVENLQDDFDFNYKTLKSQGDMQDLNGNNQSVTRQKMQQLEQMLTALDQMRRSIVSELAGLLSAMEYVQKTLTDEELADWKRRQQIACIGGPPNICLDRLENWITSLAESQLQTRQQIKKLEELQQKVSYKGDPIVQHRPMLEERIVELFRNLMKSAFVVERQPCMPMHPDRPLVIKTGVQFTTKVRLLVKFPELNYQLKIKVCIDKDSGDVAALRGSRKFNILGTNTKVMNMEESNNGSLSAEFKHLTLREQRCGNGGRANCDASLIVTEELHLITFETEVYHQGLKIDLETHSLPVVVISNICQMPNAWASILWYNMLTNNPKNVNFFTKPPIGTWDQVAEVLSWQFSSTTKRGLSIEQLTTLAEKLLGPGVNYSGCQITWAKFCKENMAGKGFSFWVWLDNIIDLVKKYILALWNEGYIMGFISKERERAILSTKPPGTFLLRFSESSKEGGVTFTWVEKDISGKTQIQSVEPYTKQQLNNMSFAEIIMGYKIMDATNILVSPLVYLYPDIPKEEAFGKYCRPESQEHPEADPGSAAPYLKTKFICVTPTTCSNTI

Row | pIC50 [1, 3] | pIC50 [2, 4] | pIC50 [1, 5] | pIC50 [2, 6] | pIC50 ([2]; STAT6 (W123-T658) 250 nM, probe 5-FAM-ApYKPFQDLI-NH2 2 nM, read-out: STAT6 (FP assay IC50 class)) | SMILES
1 | 5.00 to 6.00 |  |  |  | 5.52 to 6.52 | N#C[C@@H]1[C@@H](c2cncc(Cl)c2)CN(C(=O)[C@@H]2CC[C@@H]3CCC[C@H](NC(=O)c4cc5cc([C@H](F)P(=O)(O)O)ccc5s4)C(=O)N32)C12CC2 (single isomer, unassigned) [Compound 842]
2 | 5.00 to 6.00 | ≥ 6.52 |  |  |  | O=C(N[C@H]1CCCC[C@H]2CC[C@@H](C(=O)N3CC(c4cccnc4)CC34CC4)N2C1=O)c1cc2cc(C(F)P(=O)(O)O)ccc2s1 (stereo partly drawn) [Compound 912, (fluoro(2-(((3S,6S,10aS)-5-oxo-3-(6-(pyridin-3-yl)-4-azaspiro[2.4]heptane-4-carbonyl)decahydropyrrolo[1,2-a]azocin-6-yl)carbamoyl)benzo [b]thiophen-5-yl)methyl) phosphonic acid]
3 | 6.00 to 7.00 | 5.52 to 6.52 |  |  |  | O=C(N[C@H]1CCC[C@H]2CC[C@@H](C(=O)N3CC(n4ccc(=O)nc4)C3)N2C1=O)c1cc2cc(C(F)P(=O)(O)O)ccc2s1 (stereo partly drawn) [Compound 620, (fluoro(2-(((3S,6S,9aS)-5-oxo-3-(3-(4-oxopyrimidin-1(4H)-yl)azetidine-1-carbonyl)octahydro-1H-pyrrolo[1,2-a]azepin-6-yl)carbamoyl)benzo [b]thiophen-5-yl)methyl) phosphonic acid]
4 | 5.00 to 6.00 | 4.52 to 5.52 |  |  |  | CO[C@@H]1CC[C@@H](NC(=O)[C@@H]2CC[C@@H]3CCC[C@H](NC(=O)c4cc5cc(C(F)P(=O)(O)O)ccc5s4)C(=O)N32)C1 (stereo partly drawn) [Compound 536, (fluoro(2-(((3S,6S,9aS)-3-(((1R,3R)-3-methoxycyclopentyl)carbamoyl)-5-oxooctahydro-1H-pyrrolo[1,2-a]azepin-6-yl)carbamoyl)benzo[b]thiophen-5-yl)methyl)phosphonic acid]
5 | 6.00 to 7.00 | 4.52 to 5.52 |  |  |  | CN(C)c1cc(C2CN(C(=O)[C@@H]3CC[C@@H]4CCC[C@H](NC(=O)c5cc6cc([C@@H](F)P(=O)(O)O)ccc6s5)C(=O)N43)C2)ccn1 (single isomer, unassigned) [Compound 701]
6 | > 7.00 | 4.52 to 5.52 |  |  |  | O=C(N[C@H]1CCC[C@H]2CC[C@@H](C(=O)N3CC(c4nccc(O)n4)C3)N2C1=O)c1cc2cc(C(F)(F)P(=O)(O)O)ccc2s1 [Compound 809, (difluoro(2-(((3S,6S,9aS)-3-(3-(4-hydroxypyrimidin-2-yl)azetidine-1-carbonyl)-5-oxooctahydro-1H-pyrrolo[1,2-a]azepin-6-yl)carbamoyl)benzo [b]thiophen-5-yl)methyl) phosphonic acid]
7 | > 7.00 | 4.52 to 5.52 |  |  |  | COCCNC1(c2ccccn2)CN(C(=O)[C@@H]2CC[C@@H]3CCCC[C@H](NC(=O)c4cc5cc(C(F)P(=O)(O)O)ccc5s4)C(=O)N32)C1 (stereo partly drawn) [Compound 568, (fluoro(2-(((3S,6S,10aS)-3-(3-((2-methoxyethyl)amino)-3-(pyridin-2-yl)azetidine-1-carbonyl)-5-oxodecahydropyrrolo[1,2-a]azocin-6-yl)carbamoyl)benzo[b]thiophen-5-yl)methyl)phosphonic acid]

Continued, compound first:

Row | SMILES | pIC50 [1, 3] | pIC50 [2, 4] | pIC50 [1, 5] | pIC50 [2, 6] | pIC50 ([2]; STAT6 (W123-T658) 250 nM, probe 5-FAM-ApYKPFQDLI-NH2 2 nM, read-out: STAT6 (FP assay IC50 class))
8 | O=C(N[C@H]1CCC[C@H]2CC[C@@H](C(=O)N3CC(c4cnccc4N4CCC4)C3)N2C1=O)c1cc2cc(CP(=O)(O)O)ccc2s1 [Compound 765, ((2-(((3S,6S,9aS)-3-(3-(4-(azetidin-1-yl)pyridin-3-yl)azetidine-1-carbonyl)-5-oxooctahydro-1H-pyrrolo[1,2-a]azepin-6-yl)carbamoyl)benzo [b]thiophen-5-yl)methyl) phosphonic acid] | > 7.00 | 4.52 to 5.52 |  |  | 
9 | O=C(N[C@H]1C/C=C\C[C@@H]2[C@H](O)C[C@@H](C(=O)N3CC(C(=O)N4CCOCC4)C3)N2C1=O)c1cc2cc(C(F)(F)P(=O)(O)O)ccc2s1 [Compound 730, (difluoro(2-(((1R,3S,6S,10aR,Z)-1-hydroxy-3-(3-(morpholine-4-carbonyl)azetidine-1-carbonyl)-5-oxo-1,2,3,5,6,7,10,10a-octahydropyrrolo[1,2-a]azocin-6-yl)carbamoyl)benzo [b]thiophen-5-yl)methyl) phosphonic acid] | 5.00 to 6.00 | 4.52 to 5.52 |  |  | 
10 | O=C(N[C@H]1CCCC[C@H]2CC[C@@H](C(=O)Nc3ccc4c(c3)CCS4(=O)=O)N2C1=O)c1cc2cc(C(F)(F)P(=O)(O)O)ccc2s1 [Compound 57, ((2-(((3S,6S,10aS)-3-((1,1-dioxido-2,3-dihydrobenzo[b]thiophen-5-yl)carbamoyl)-5-oxodecahydropyrrolo [1,2-a]azocin-6-yl)carbamoyl)benzo[b]thiophen-5-yl)difluoromethyl) phosphonic acid] |  |  | 6.00 to 7.00 | 5.52 to 6.52 | 
11 | CC1(C)C[C@H](c2ccccc2)CN1C(=O)[C@@H]1CC[C@@H]2CCCC[C@H](NC(=O)c3cc4cc(C(F)(F)P(=O)(O)O)ccc4s3)C(=O)N21 [Compound 815, ((2-(((3S,6S,10aS)-3-((R)-2,2-dimethyl-4-phenylpyrrolidine-1-carbonyl)-5-oxodecahydropyrrolo [1,2-a]azocin-6-yl)carbamoyl)benzo [b]thiophen-5-yl)difluoromethyl) phosphonic acid] | 5.00 to 6.00 | 5.52 to 6.52 |  |  | 
12 | CC(O)C1(c2ccccc2)CN(C(=O)[C@@H]2CC[C@@H]3CCCC[C@H](NC(=O)c4cc5cc(C(F)(F)P(=O)(O)O)ccc5s4)C(=O)N32)C1 (stereo partly drawn) [Compound 495, (difluoro(2-(((3S,6S,10aS)-3-(3-(1-hydroxyethyl)-3-phenylazetidine-1-carbonyl)-5-oxodecahydropyrrolo[1,2-a]azocin-6-yl)carbamoyl)benzo[b]thiophen-5-yl)methyl)phosphonic acid] | 6.00 to 7.00 | 4.52 to 5.52 |  |  | 
13 | CC(NC(=O)[C@@H]1CC[C@@H]2CCCC[C@H](NC(=O)c3cc4cc(C(F)(F)P(=O)(O)O)ccc4s3)C(=O)N21)c1cc[nH]c(=O)c1 (stereo partly drawn) [Compound 792, (difluoro(2-(((3S,6S,10aS)-5-oxo-3-((1-(2-oxo-1,2-dihydropyridin-4-yl)ethyl)carbamoyl)decahydropyrrolo[1,2-a]azocin-6-yl)carbamoyl)benzo [b]thiophen-5-yl)methyl) phosphonic acid] | 6.00 to 7.00 | 5.52 to 6.52 |  |  | 
14 | Cc1cnn(C2CN(C(=O)[C@@H]3CC[C@@H]4CCCC[C@H](NC(=O)c5cc6cc(C(F)(F)P(=O)(O)O)ccc6s5)C(=O)N43)C2)c1 [Compound 68, (difluoro(2-(((3S,6S,10aS)-3-(3-(4-methyl-1H-pyrazol-1-yl)azetidine-1-carbonyl)-5-oxodecahydropyrrolo [1,2-a]azocin-6-yl)carbamoyl)benzo[b]thiophen-5-yl)methyl) phosphonic acid] |  |  | 6.00 to 7.00 | 4.52 to 5.52 | 
15 | N#Cc1nccc(C2CN(C(=O)[C@@H]3CC[C@@H]4CCC[C@H](NC(=O)c5cc6cc(CP(=O)(O)O)ccc6s5)C(=O)N43)C2)n1 [Compound 515, ((2-(((3S,6S,9aS)-3-(3-(2-cyanopyrimidin-4-yl)azetidine-1-carbonyl)-5-oxooctahydro-1H-pyrrolo[1,2-a]azepin-6-yl)carbamoyl)benzo[b]thiophen-5-yl)methyl)phosphonic acid] | 5.00 to 6.00 | 4.52 to 5.52 |  |  | 
